Data published in patent US20250320496A1, “MODULATION OF ABCB11 GENE TRANSCRIPTION USING ANTISENSE OLIGONUCLEOTIDES TARGETING REGULATORY RNAS” (CAMP4 Therapeutics Corporation, priority 2022, published 2025).
Strand notation (5' to 3'): a small letter for the sugar, then the base; units joined by * are phosphorothioate-linked, units joined directly phosphodiester-linked; [ ] holds rarer units or linkages, { } end groups; capitals alone tell only the bases. e = 2'-O-(2-methoxyethyl) (MOE); [5mC] = 5-methylcytosine

Tested on: human ABCB11 mRNA
Experiment: ASO treatment of primary human hepatocytes (PHH), ABCB11 mRNA by RT-qPCR normalized to B2M
Assay type: cell-based
Conditions: for upregulation of ABCB11 mRNA: PHHs, Day 3, normalized to untreated PHHs; for ABCB11 mRNA FC (5 μM ASO vs. UNT): primary human hepatocytes, normalized to untreated PHHs (UNT)
Experimental: Primary human hepatocytes (PHH) were thawed using Lonza Human Cryopreserved Hepatocyte Thawing Medium and plated in 96-well collagen-coated plates (5.5-6.0×10^4 cells per well). Four hours later, the media was replaced with sterile-filtered QualGro™ Hepatocyte Culture Medium (BioIVT) containing antibiotic supplement, 0.3 mg/ml Matrigel® matrix (Corning®), and ASO at the desired concentration (e.g., 1.25 μM, 2.5 μM, 5 μM, or 10 μM). After 72 hrs., cells were harvested by aspirating media, washing once with phosphate-buffered saline (PBS), and lysed with 150 μl of Buffer RLT lysis buffer (Qiagen®). Plates were frozen at-80° C. during cell lysis. After thawing, total RNA was isolated using the Qiagen RNEasy kit as instructed by manufacturer. cDNA (random-primed) was synthesized from 10 μl of RNA using the LifeTech High Capacity cDNA Reverse Transcription kit. 2 μl of cDNA was used for reverse transcription-quantitative PCR (RT-qPCR) analyses using standard Taqman” reagents from Applied Biosystems™ to measure ABCB11 and CYP7A1 gene expression. Gene expression data was normalized to the housekeeper gene, beta-2-microglobulin (B2M).
To assess the ability of ASOs targeting ABCB11 regRNAs to modulate the expression of human ABCB11, 195 ASOs targeting the human ABCB11 regRNAs were synthesized. These initial ASOs were screened in PHHs at 5 μM to determine their efficacy in increasing human ABCB11 mRNA using quantitative PCR. This initial screen identified 10 ASOs that induced increased expression of ABCB11 mRNA by more than 1.5-fold (as compared to untreated PHHs).

In the case of “CO-3974: ASO targeting the paRNA regRNA RR63 (antisense eT*e[5mC]*eT*eG*eG*eA*eA*eA*eA*eT*eA*eA*eT*eG*e[5mC]*e[5mC]*eT*eT*eT*e[5mC])”, the “upregulation of ABCB11 mRNA” value is reported as “approximately 1.5 fold” and the “ABCB11 mRNA FC (5 μM ASO vs. UNT)” value is reported as 1.2 fold change.
In the case of “CO-3984: ASO targeting the paRNA regRNA RR63 (antisense e[5mC]*eA*eT*eT*eT*eA*eG*eA*eG*eA*e[5mC]*eA*eA*eA*eG*eA*eA*eT*e[5mC]*eG)”, the “upregulation of ABCB11 mRNA” value is reported as “approximately 1.5 fold” and the “ABCB11 mRNA FC (5 μM ASO vs. UNT)” value is reported as 1.111 fold change.
In the case of “CO-3988 (antisense eA*eA*eA*eT*eG*e[5mC]*e[5mC]*e[5mC]*eA*eA*eG*eT*eT*eT*e[5mC]*eA*eT*eT*eG*e[5mC])”, the “ABCB11 mRNA FC (5 μM ASO vs. UNT)” value is reported as 1.827 fold change.
For “CO-3989 (antisense eA*eA*eG*eA*eT*eG*e[5mC]*eT*eA*e[5mC]*eA*eA*eT*eT*eG*e[5mC]*e[5mC]*eA*eT*eA)”, the “ABCB11 mRNA FC (5 μM ASO vs. UNT)” value was 1.19 fold change.
With “CO-3991 (antisense eG*eG*eG*eA*eT*eG*eA*e[5mC]eT*e[5mC]*e[5mC]eT*eA*eA*eA*eA*eA*eT*eG*eG)” the “ABCB11 mRNA FC (5 μM ASO vs. UNT)” value was 1.614 fold change.
With “CO-3992 (antisense eT*eG*eT*eT*eT*e[5mC]*e[5mC]*eT*eA*eG*eT*eA*e[5mC]*e[5mC]*eA*eA*eG*eA*eA*eT)” the “ABCB11 mRNA FC (5 μM ASO vs. UNT)” value was 1.388 fold change.
“CO-3993 (antisense eG*e[5mC]*e[5mC]*e[5mC]*e[5mC]*eT*eT*eG*eA*eA*eT*eA*eA*eT*eT*eT*eT*eT*eG*eT)” was tested, and the “ABCB11 mRNA FC (5 μM ASO vs. UNT)” value was 1 fold change.
“CO-3994 (antisense e[5mC]*e[5mC]*e[5mC]*eA*e[5mC]*eT*e[5mC]*eT*eA*eG*eA*eT*eT*eG*e[5mC]*eA*eA*eG*e[5mC]*e[5mC])” was tested, and the “ABCB11 mRNA FC (5 μM ASO vs. UNT)” value was 1.988 fold change.
In the case of “CO-3995 (antisense eG*eT*e[5mC]*eT*eA*eG*eG*eA*eG*e[5mC]*eT*eT*e[5mC]*eT*eG*eT*eT*eT*eA*e[5mC])”, the “ABCB11 mRNA FC (5 μM ASO vs. UNT)” value is reported as 1.683 fold change.
For “CO-3996 (antisense eT*eT*eG*eT*e[5mC]*eT*e[5mC]*eT*eG*eG*eT*eT*eG*eAeA*eG*e[5mC]*e[5mC]*eT*e[5mC])”, the “ABCB11 mRNA FC (5 μM ASO vs. UNT)” value was 2.097 fold change.
With “CO-3997 (antisense eG*e[5mC]*eT*eG*eT*eG*e[5mC]*eT*e[5mC]*eT*eG*eT*eA*eA*e[5mC]*eA*e[5mC]*eT*eG*eT)” the “ABCB11 mRNA FC (5 μM ASO vs. UNT)” value was 1.501 fold change.
“CO-3998: ASO targeting the paRNA regRNA RR63 (antisense eA*e[5mC]*e[5mC]*e[5mC]*e[5mC]*e[5mC]*e[5mC]*eT*e[5mC]*eA*e[5mC]*e[5mC]*eT*eT*eG*eGeT*eT*e[5mC]*e[5mC])” was tested, and the “upregulation of ABCB11 mRNA” value was “approximately 1.5 fold” and the “ABCB11 mRNA FC (5 μM ASO vs. UNT)” value was 1.319 fold change.
For “CO-3999 (antisense eG*eG*e[5mC]*eA*eA*e[5mC]*e[5mC]*eT*e[5mC]*eG*eT*e[5mC]*e[5mC]*e[5mC]*e[5mC]*eT*e[5mC]*eA*e[5mC]*eT)”, the “ABCB11 mRNA FC (5 μM ASO vs. UNT)” value was 1.076 fold change.
With “CO-4011 (antisense eT*e[5mC]*e[5mC]*eA*eA*e[5mC]*eA*e[5mC]*e[5mC]*eG*eT*eA*e[5mC]*eT*e[5mC]*eA*eT*eT*eT*e[5mC])” the “ABCB11 mRNA FC (5 μM ASO vs. UNT)” value was 1.184 fold change.
For “CO-4012 (antisense eG*eA*eA*e[5mC]*eT*eA*e[5mC]*eA*e[5mC]*e[5mC]*eG*eA*e[5mC]*eT*eT*eT*eA*eT*e[5mC]*eT)”, the “ABCB11 mRNA FC (5 μM ASO vs. UNT)” value was 1.15 fold change.
“CO-4013 (antisense eT*eT*eG*eA*eA*eA*eG*e[5mC]*eT*eG*eG*eT*eT*eT*eA*eA*eT*eG*e[5mC]*eA)” was tested, and the “ABCB11 mRNA FC (5 μM ASO vs. UNT)” value was 1.166 fold change.
For “CO-4014 (antisense eG*eA*eT*e[5mC]*eA*e[5mC]*eA*eA*eA*eT*eT*e[5mC]*eT*eA*e[5mC]*e[5mC]*e[5mC]*eT*eT*eG)”, the “ABCB11 mRNA FC (5 μM ASO vs. UNT)” value was 1.003 fold change.
With “CO-4015 (antisense eG*eT*eT*eT*eG*e[5mC]*eT*e[5mC]*eT*eG*eA*eT*eA*eA*eT*e[5mC]*eA*e[5mC]*eA*eG)” the “ABCB11 mRNA FC (5 μM ASO vs. UNT)” value was 1.043 fold change.
In the case of “CO-4016 (antisense eT*eT*eT*eT*eA*eA*e[5mC]*eT*eT*eG*eG*e[5mC]*eT*eT*eT*eG*eT*eG*eA*eA)”, the “ABCB11 mRNA FC (5 μM ASO vs. UNT)” value is reported as 1.294 fold change.
“CO-4017 (antisense e[5mC]*eT*eG*e[5mC]*eT*e[5mC]*eA*eA*eA*eG*eT*eA*eA*eA*eA*eA*eT*eA*e[5mC]*e[5mC])” was tested, and the “ABCB11 mRNA FC (5 μM ASO vs. UNT)” value was 1.228 fold change.
With “CO-4018 (antisense eA*eT*eG*eG*e[5mC]*e[5mC]*eG*eA*eA*eT*eA*eG*eA*eT*eT*eG*eA*eA*eT*eA)” the “ABCB11 mRNA FC (5 μM ASO vs. UNT)” value was 1.124 fold change.
With “CO-4019 (antisense eA*eG*eA*eG*eT*eG*eG*eT*eG*eT*eA*e[5mC]*eA*eT*eG*eG*eG*eT*eG*eT)” the “ABCB11 mRNA FC (5 μM ASO vs. UNT)” value was 1.028 fold change.
In the case of “CO-4020 (antisense e[5mC]*eA*eT*eG*eT*eA*eT*e[5mC]*eA*eA*eT*e[5mC]*eT*e[5mC]*eT*eT*eA*eG*eA*eG)”, the “ABCB11 mRNA FC (5 μM ASO vs. UNT)” value is reported as 1.201 fold change.
In the case of “CO-4021 (antisense eG*eT*e[5mC]*eT*eT*e[5mC]*eT*eT*eT*eA*eT*eA*eG*e[5mC]*eA*eA*eT*eG*e[5mC]*eT)”, the “ABCB11 mRNA FC (5 μM ASO vs. UNT)” value is reported as 1.301 fold change.
In the case of “CO-4022 (antisense eG*eA*eT*eG*eA*e[5mC]*eT*e[5mC]*eT*eT*eG*eG*eT*eT*eG*e[5mC]*eT*eG*eT*e[5mC])”, the “ABCB11 mRNA FC (5 μM ASO vs. UNT)” value is reported as 1.168 fold change.
With “CO-4023 (antisense e[5mC]*eA*e[5mC]*eA*eA*e[5mC]*eA*eT*eT*eG*eT*eA*eT*eA*e[5mC]*eA*eA*eT*eA*e[5mC])” the “ABCB11 mRNA FC (5 μM ASO vs. UNT)” value was 1.092 fold change.
With “CO-4024 (antisense eA*e[5mC]*eT*eT*eA*e[5mC]*eA*eG*eG*eA*eT*eG*e[5mC]*eA*eT*eT*eA*eA*eT*eG)” the “ABCB11 mRNA FC (5 μM ASO vs. UNT)” value was 0.997 fold change.
For “CO-4025 (antisense eA*e[5mC]*eG*e[5mC]*eT*eA*e[5mC]*eA*eA*eT*eA*e[5mC]*eT*eT*eG*eG*eA*eT*eA*eG)”, the “ABCB11 mRNA FC (5 μM ASO vs. UNT)” value was 0.832 fold change.
“CO-4026 (antisense e[5mC]*eT*eT*eG*eT*e[5mC]*e[5mC]*eA*eG*eT*eG*eT*eA*eA*eA*e[5mC]*eA*eA*e[5mC]*eG)” was tested, and the “ABCB11 mRNA FC (5 μM ASO vs. UNT)” value was 1.234 fold change.
In the case of “CO-4027 (antisense eG*eT*eG*eG*eA*eG*eT*eGeT*eT*eT*e[5mC]*eT*eG*eG*eT*eT*eT*eA*eT)”, the “ABCB11 mRNA FC (5 μM ASO vs. UNT)” value is reported as 1.095 fold change.
“CO-4028 (antisense eT*eT*eA*eA*e[5mC]*eT*e[5mC]*eT*eT*eA*e[5mC]*eT*eT*eT*eG*eT*eG*eG*eA*eG)” was tested, and the “ABCB11 mRNA FC (5 μM ASO vs. UNT)” value was 1.418 fold change.
With “CO-4029 (antisense eA*eT*eA*e[5mC]*eT*eT*eG*eT*e[5mC]*eT*e[5mC]*eT*eG*e[5mC]eA*eA*eA*eT*e[5mC]*e[5mC])” the “ABCB11 mRNA FC (5 μM ASO vs. UNT)” value was 0.908 fold change.
“CO-4030 (antisense eT*e[5mC]*eA*e[5mC]*eA*eG*eGeT*eA*eA*eG*eT*eA*eA*e[5mC]*eT*eT*eA*eT*eA)” was tested, and the “ABCB11 mRNA FC (5 μM ASO vs. UNT)” value was 1.106 fold change.
With “CO-4031 (antisense eG*eG*e[5mC]*eT*eT*e[5mC]*e[5mC]*eT*e[5mC]*eA*eA*eA*eT*eT*e[5mC]*eA*eT*eA*eT*eT)” the “ABCB11 mRNA FC (5 μM ASO vs. UNT)” value was 1.427 fold change.
For “CO-4032 (antisense eA*eG*eT*e[5mC]*e[5mC]*eA*eT*eT*eA*eT*eT*eT*e[5mC]*e[5mC]*eT*e[5mC]*eT*eG*eG*e[5mC])”, the “ABCB11 mRNA FC (5 μM ASO vs. UNT)” value was 1.311 fold change.
For “CO-4033 (antisense eG*eA*eA*eA*e[5mC]*e[5mC]*eT*eT*eT*eT*eA*eA*e[5mC]*eT*e[5mC]*eT*e[5mC]*e[5mC]*eA*e[5mC])”, the “ABCB11 mRNA FC (5 μM ASO vs. UNT)” value was 1.472 fold change.
